Data published in patent publication US12661338B2, “Heterocyclic compounds as modulators of beta-catenin / TCF4 interaction” (AGENCY FOR SCIENCE, TECHNOLOGY AND RESEARCH, priority 2019, dated 2026).

Legend:
[1] = system: DLD-1 cells; assay: Dose response viability of CRC cells (CellTiter-Glo); assay type: cell-based; conditions: Homo sapiens, 24 hr
Description: (§1) HCT116, DLD-1, and SW480 cells were seeded as 5,000 cells in 100 μL growth medium per well in 96-well plates (Corning cat. #3903). The next day, 5-fold dilutions of the compounds in DMSO were added to the cells at a final concentration of 1% DMSO. After 24 hr incubation, the viability of the cells was determined with CellTiter-Glo luminescent cell viability reagent (Promega cat. #G7573) according to the manufacturer's protocol.
(§2) The average signal from DMSO treated wells was calculated for each plate, and the signal from each treatment well was normalized against the average DMSO signal from the respective plate. The normalized values were plotted against the concentrations tested using GraphPad Prism 5, and the EC50 values were determined through either three- or four-parameter nonlinear regression.

[2] = system: HCT116 cells; assay: as above; assay type: cell-based; conditions: Homo sapiens, HCT-116, 24 hr
Description: as §1, §2

[3] = system: SW480 cells; assay: as above; assay type: cell-based; conditions: Homo sapiens, 24 hr
Description: as §1, §2

[4] = biological target: T1, β-cat / GST-TCF4 N-terminal domain interaction (Homo sapiens, UniProt P35222); assay: SPR inhibition of β-cat-TCF4 interaction; assay type: binding; conditions: SPR competition, 50 nM β-cat pre-incubated 15 min, n=2; read-out: IC50 inhibition of interaction between β-cat and TCF4
T1 construct: His-tagged human β-cat (134-668); made in house; host or cells: E. coli BL21(DE3)
T1 sequence (P35222 134-668): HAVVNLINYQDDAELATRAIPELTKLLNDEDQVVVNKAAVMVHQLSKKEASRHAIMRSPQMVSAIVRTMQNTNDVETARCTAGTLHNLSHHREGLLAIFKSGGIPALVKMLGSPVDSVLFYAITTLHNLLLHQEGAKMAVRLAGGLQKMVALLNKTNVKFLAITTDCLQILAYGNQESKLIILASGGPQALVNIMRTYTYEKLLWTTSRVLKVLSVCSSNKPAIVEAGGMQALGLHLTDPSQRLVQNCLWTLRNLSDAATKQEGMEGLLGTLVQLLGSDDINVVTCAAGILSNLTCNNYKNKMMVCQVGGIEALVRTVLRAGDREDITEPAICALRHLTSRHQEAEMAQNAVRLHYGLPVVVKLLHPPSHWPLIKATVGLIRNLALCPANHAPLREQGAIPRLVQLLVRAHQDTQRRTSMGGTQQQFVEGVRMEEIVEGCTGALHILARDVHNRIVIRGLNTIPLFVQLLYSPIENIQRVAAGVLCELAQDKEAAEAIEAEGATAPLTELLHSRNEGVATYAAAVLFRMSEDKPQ
Description: BL21(DE3) cells harboring pET-28 β-cat expression vector of His-tagged human β-cat (134-668) were cultured at 37° C. until OD600=0.6-0.8. The cells were then induced with 500 μM isopropyl-β-D-thiogalactopyranoside (IPTG) for 6-8 hr at 23° C. Cells were lysed by sonication in lysis buffer containing 20 mM Tris (pH 8.8), 250 mM NaCl, 2 mM DTT, 5% glycerol, 0.1% Triton X-100, and cOmplete protease inhibitor cocktail (EDTA free, Roche cat. #11873580001). The lysate was incubated with Ni-NTA agarose beads (Qiagen cat. #30210) at 4° C. for 1 hr, and the beads were then washed with lysis buffer containing 20 mM imidazole. Bound protein was eluted with buffer containing 20 mM Tris (pH 8.8), 250 mM NaCl, 0.5 mM tris(2-carboxyethyl)phosphine (TCEP), 5% glycerol, and 250 mM imidazole.
GST-tagged TCF4 N-terminal domain was expressed similarly in BL21(DE3) cells, induced for 2-4 hr at 23° C. with IPTG, and purified from glutathione agarose beads (Pierce cat. #16100) using buffer containing 20 mM Tris (pH 8.8), 250 mM NaCl, 0.5 mM TCEP, 5% glycerol, and 10 mM reduced glutathione.
GST-tag TCF4 N-terminal domain (31 kDa, >90% pure based on SDS-PAGE) was immobilized on a CM5 series S sensor chip using amine-coupling chemistry. […]

[5] = system: β-cat-ECAD interaction; assay: Co-immunoprecipitation of β-cat and ECAD in HCT116 cells; assay type: cell-based; conditions: 18 hr
Description: HCT116 cells were treated for 18 hr with compounds at the indicated concentrations. Cells were lysed on ice in lysis buffer containing 20 mM HEPES, pH 7.5, 137 mM NaCl, 1.5 mM MgCl2, 1 mM EGTA, 1 mM dithiothreitol (DTT), 1% Triton X-100, 10% glycerol, cOmplete protease inhibitor cocktail (Roche cat. #11697498001), and 1 mM Na3VO4. Each sample of cleared protein lysate was incubated overnight at 4° C. with 4 μg anti-β-cat antibody (Sigma cat. #C7207) followed by 1 hr incubation with a 50 μL slurry of Dynabeads Protein G (Invitrogen cat. #10004D) at 4° C. The beads were then washed three times with lysis buffer at 4° C., and the bound protein was eluted by heating the beads with 30 μL (per sample) of SDS sample buffer at 95° C. for 7 min. protein was resolved by SDS-PAGE and blotted onto PVDF membrane (Millipore cat. #IPVH00010). Primary antibodies were incubated overnight at 4° C. and the blots were detected with either IRDye 800CW goat anti-rabbit antibody (LI-COR cat. #926-32211) or IRDye 680RD goat anti-mouse antibody (LI-COR cat. #926-68070) at 1:5000 dilution. Signals were visualized with the LI-COR Odyssey CLx imaging system and bands were quantified using LI-COR Image Studio data analysis software. […]

[6] = system: HCT116 cells; assay: Colony formation assay; assay type: cell-based; conditions: HCT116, 30 μM, 7 days
Description: FIG. 4 depicts the inhibit growth by hit compounds and their effects on stemness of Wnt driven cells. (FIG. 4A) Growth curves of HCT116 cells treated daily with compounds at 10 μM. One-way repeated measures ANOVA with Dunnett's multiple comparison test was carried out to determine the significance between compound treatment and DMSO control. *P<0.05, ***P<0.001. (FIG. 4B) Effects of hit compounds on colony formation of HCT116 cells. HCT116 cells were grown in 6-well plates and treated with either DMSO or the compounds at 30 μM for 7 days, following which the cells were fixed and stained with crystal violet. The number of colonies obtained were counted. Two-tailed Student's t-test was carried out between compound treatment and DMSO control. ***P<0.001. (FIG. 4C) Effects of hit compounds on spheroid formation of HCT116 cells. HCT116 cells were grown in ultra-low attachment 96-well plates and treated with either DMSO or the compounds at 30 µM for 14 days, following which the number of spheroids ≥200 μm in size was determined. Two-tailed Student's t-test was carried out between compound treatment and DMSO control. ***P<0.001, **P<0.01. Scale bar represents 1 mm. (FIG. 4D) NSG mice xenografted with HCT116 cells were treated with vehicle control (n=6) or 50 mg/kg GB1874 (n=6) via i.p. every other day for 2 weeks. Tumor volumes were monitored over time. […]

[7] = system: CRC1707; assay: Viability of primary patient-derived colorectal cancer cell line; assay type: cell-based

## CCc1ccc(OCc2nnc(SC3CCCC3=O)n2C(C)c2ccccc2)cc1 (stereo not shown) [GB1874]
[1]
  EC50: 28 µM
[2]
  EC50: 45 µM
[3]
  EC50: 24 µM
[4]
  IC50: 25 ± 8 µM
[5]
  β-cat-ECAD interaction (co-IP): minimal effect on the β-cat-ECAD interaction
[6]
  colony forming efficiency: markedly reduce survival of the cancer stem-like cells
[7]
  EC50: 19 µM
